Like-named read-outs stand apart in the source and are kept apart here.
Legend:
[1] = tested on: Influenza B virus B/Lee/40; test: Normal Human Bronchial/Tracheal Epithelial Cell Influenza Infection Assay (EC50), Influenza B Lee/40; assay type: cell-based; conditions: Normal Human Bronchial/Tracheal Epithelial Cells, 10 MOI, five day incubation, neuramidase substrate fluorescence, read-out: Infl B Lee/40 EC50
Description: Normal Human Bronchial/Tracheal Epithelial Cell Influenza Infection Assay (EC50)
Normal Human Bronchial/Tracheal Epithelial Cells (Lonza, Basel Switzerland) are seeded to 384-well plates at a density of 4000 cells per well in BEGM medium supplemented with growth factors (Lonza, Basel Switzerland). Medium is removed next day, and cells are washed three times with 100 μL of RPMI+1% BSA (RPMI-BSA). 30 μL of RPMI-BSA is added to cells thereafter. Compounds are 3-fold serially diluted in DMSO, and 0.4 μL of compound dilutions are stamped to plates. Influenza A virus HK/8/68 (Advanced Biotechnology Inc, Columbia, Md., 13.5 MOI), PC/1/73 (ATCC Manassas, Va., 0.3 MOI) and Influenza B virus B/Lee/40 ((ATCC Manassas, Va., 10 MOI) are added to cells in 10 μL of RPMI-BSA medium supplemented with 8 ug/mL trypsin (Worthington, Lakewood, N.J.). After a five day incubation, 40 μL of buffer containing 66 mM Mes pH 6.5, 8 mM CaCl2, 0.5% NP-40 and 100 μM neuramidase substrate (2′-(4-Methylumbelliferyl)-α-D-N-acetylneuraminic acid sodium salt hydrate, Sigma Aldrich, St. Luis, Mo.) is added to cells. Fluorescence of the product of hydrolysis is read using excitation at 360 nm and emission at 450 nm after a 1 hour incubation at 37° C. EC50 values are calculated by non-linear regression of multiple data sets.

[2] = tested on: Influenza A virus PC/1/73; test: microbe, parasite or virus in culture; assay type: cell-based; conditions: read-out: Infl A PC/1/73 EC50
Influenza RNA polymerase = Influenza RNA polymerase (Influenza A virus, UniProt P03431); test: Influenza RNA Polymerase Inhibition (IC50) Assay; assay type: biochemical; conditions: virus lysate of Influenza A/PR/8/34 (H1N1), 30° C. for 90 minutes, α-33P labeled NTP incorporation
Description: Influenza RNA Polymerase Inhibition (IC50) Assay
Influenza A/PR/8/34 (H1N1) purified virus was obtained from Advanced Biotechnologies Inc. (Columbia, Md.) as suspension in PBS buffer. Virions were disrupted by exposure to an equal volume of 2% Triton X-100 for 30 minutes at room temperature in a buffer containing 100 mM Tris-HCl, pH 8, 200 mM KCl, 3 mM dithiothreitol [DTT], 10% glycerol, 10 mM MgCl2, 2 U/mL RNasin Ribonuclease Inhibitor, and 2 mg/mL Lysolechithin type V (Sigma, Saint Louis, Mo.). The virus lysate was stored at −80° C. in aliquots.
The concentrations refer to final concentrations unless mentioned otherwise. Nucleotide analog inhibitors were serially diluted 3 fold in water and added to reaction mix containing 10% virus lysate (v/v), 100 mM Tris-HCl (pH 8.0), 100 mM KCl, 1 mM DTT, 10% glycerol, 0.25% Triton-101 (reduced), 5 mM MgCl2, 0.4 U/mL RNasin, and 200 μM ApG dinucleotide primer (TriLink, San Diego Calif.). […]
Reactions were incubated at 30° C. for 90 minutes then spotted onto DE81 filter paper. Filters were air dried, washed 0.125 M Na2HPO4 (3×), water (1×), and EtOH (1×), and air dried before exposed to Typhoon phosphor imager and radioactivity was quantified on a Typhoon Trio (GE Healthcare, Piscataway N.J.). […]

Influenza RNA polymerase, sequence (P03431 whole entry, looked up): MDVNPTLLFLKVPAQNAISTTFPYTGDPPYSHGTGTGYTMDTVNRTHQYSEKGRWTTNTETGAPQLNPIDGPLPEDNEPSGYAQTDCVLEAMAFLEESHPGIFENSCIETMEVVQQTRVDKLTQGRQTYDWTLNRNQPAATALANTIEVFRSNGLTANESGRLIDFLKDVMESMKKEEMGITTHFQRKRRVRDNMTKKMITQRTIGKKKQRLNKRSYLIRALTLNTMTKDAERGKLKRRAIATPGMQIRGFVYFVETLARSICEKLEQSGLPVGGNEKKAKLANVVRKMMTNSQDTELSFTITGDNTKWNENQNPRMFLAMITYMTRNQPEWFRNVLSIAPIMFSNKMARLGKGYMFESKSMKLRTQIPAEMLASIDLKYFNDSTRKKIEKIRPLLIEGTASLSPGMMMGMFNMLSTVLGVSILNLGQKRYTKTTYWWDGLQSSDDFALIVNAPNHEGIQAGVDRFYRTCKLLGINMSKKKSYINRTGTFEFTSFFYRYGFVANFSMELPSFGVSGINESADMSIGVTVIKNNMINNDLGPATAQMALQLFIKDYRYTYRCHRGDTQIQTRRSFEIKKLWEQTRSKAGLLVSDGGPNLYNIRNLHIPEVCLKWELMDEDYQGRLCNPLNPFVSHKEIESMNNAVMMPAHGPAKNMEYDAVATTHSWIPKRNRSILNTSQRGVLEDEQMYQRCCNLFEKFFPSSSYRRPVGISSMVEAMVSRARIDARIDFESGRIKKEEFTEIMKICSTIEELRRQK

Row | Structure (SMILES) | EC50 ([1]; Influenza B virus, Epithelial cell, 120 h) [µM] | EC50 ([2]; Influenza A virus, Epithelial cell, 120 h) [µM] | EC50 [1] [µM] | EC50 [2] [µM] | IC50 (Influenza RNA polymerase) [µM]
1 | COc1nc(N)nn2c([C@@H]3O[C@H](CO)[C@@H](O)[C@H]3F)cnc12 [Compound 19, (2R,3R,4R,5S)-5-(2-amino-4-methoxyimidazo[1,2-f][1,2,4]triazin-7-yl)-4-fluoro-2-(hydroxymethyl)tetrahydrofuran-3-ol] | 36 | 30 |  |  | 
2 | CCOc1nc(N)nn2c([C@@H]3O[C@H](CO)[C@@H](O)[C@H]3F)cnc12 [Compound 18, (2R,3R,4R,5S)-5-(2-amino-4-ethoxyimidazo[1,2-f][1,2,4]triazine-7-yl)-4-fluoro-2-(hydroxymethyl)tetrahydrofuran-3-ol] |  |  | > 200 | > 200 | 
3 | Nc1nn2c([C@@H]3O[C@H](COP(=O)(O)OP(=O)(O)OP(=O)(O)O)[C@@H](O)[C@H]3F)cnc2c(=O)[nH]1 [Compound 8, ((2R, 3R, 4R, 5S)-5-(2-amino-4-oxo-3,4-dihydroimidazo[1,2-J][1,2,4]triazin-7-yl)-4-fluoro-3-hydroxy-3-hydroxytetrahydrofuran-2-yl)methyl tetrahydrogen triphosphate] |  |  |  |  | 2.8
4 | Nc1ncnn2c([C@H]3O[C@@H](CO)[C@H](O)[C@H]3F)cnc12 [Compound 10, (2S,3S,4R,5R)-5-(4-aminoimidazo[1,2-f][1,2,4]triazin-7-yl)-4-fluoro-2-(hydroxymethyl)tetrahydrofuran-3-ol] |  |  | 0.9 | 0.9 | 
5 | Nc1nc(N)c2ncc(C3OC(CO)C(O)C3F)n2n1 [Compound 6, (2S,3S,4R,5R)-5-(2,4-diaminoimidazo[1,2-f][1,2,4]triazin-7-yl)-4-fluoro-2-(hydroxymethyl)tetrahydrofuran-3-ol] |  |  | 51 | 21 | 
6 | Nc1nn2c([C@@H]3O[C@H](CO)[C@@H](O)[C@@H]3F)cnc2c(=O)[nH]1 [Compound 7] |  |  | 37 | 27 | 
7 | Nc1nc(F)nn2c([C@@H]3O[C@H](CO)[C@@H](O)[C@H]3F)cnc12 [Compound 12, (2R,3R,4R,5S)-5-(4-amino-2-fluoroimidazo[1,2-f][1,2,4]triazin-7-yl)-4-fluoro-2-(hydroxymethyl)tetrahydrofuran-3-ol] |  |  | > 100 | > 100 | 

From patent publication US10941177B2, “2′-substituted carba-nucleoside analogs for antiviral treatment” (Gilead Sciences, Inc., priority 2012, dated 2021)
